Measured values taken from US20230065158A1, “OXABICYCLOHEPTANES FOR TREATMENT OF SMALL CELL LUNG CANCER” (Lixte Biotechnology, Inc., priority 2021, published 2023).

Tests used:
[1] = system: H524 cells; test: Seahorse XF Cell Energy Phenotype Test; format: cell-based; settings: LB100 2.5 μM
Protocol: FIGS. 5A-5F depict the effect of LB-100 on cell energy phenotype in SCLC cells. FIG. 5A: LB100 treatment (2.5 μM) induced metabolic switch in H524 cells. Cell energy phenotype was obtained by using XF Cell Energy Phenotype Reporter Generator. Empty squares indicate baseline energy phenotype, solid squares represent stressed energy phenotype measured after oligomycin/FCCP injection. FIGS. 5B and 5C: OCR and ECARin control (blue circles) and LB-100 (orange circles) H524 cells were measured overtime. (n=2, six different wells for each […]). FIG. 5D: Effect of LB-100 (10 μM) on H69 cell energy phenotype. FIGS. 5E and 5F: Effect of mitochondrial stressor on OCR and ECAR in H69 cells. Blue circles indicate control and orange circles show LB-100 treatment. (n=2, six technical replicates).
Next, we determined the effect of LB100 on ATP production in SCLC cells employing the Seahorse XF Cell Energy Phenotype Test. […] After drug treatment, we counted the number of cells and examined them for viability using exclusion of trypan blue as a readout. Cellular basal oxygen consumption rate (OCR) and extra-cellular acidification rate (ECAR) measurements were determined on a Seahorse XF96 analyzer. […]

[2] = system: H446 spheroids; test: H446 spheroid growth, IncuCyte Live-Cell Analysis; format: cell-based; settings: LB100 20 μM, up to 72 hours
Protocol: FIGS. 2A-2H depict the effect of LB-100 on H446 spheroid growth. FIG. 2A: Morphology of a single spheroid of H446 cells on days one and nine. Spheroids grow continuously and H&E staining is represented. FIG. 2B: Spheroid's growth in response to LB-100 treatment was recorded with IncuCyte Live-Cell Analysis System. FIG. 2C: Cytotoxicity effect of LB100 was recorded with IncuCyte Live-Cell Analysis System in the presence of LB-100 and IncuCyte Cytotox reagent in green fluorescence. […] Scale bar 100 μm. (FIGS. 2E and 2G). Effect of LB100 and carboplatin alone or in combination was monitored using IncuCyte Live Cell system for 70 h.
We further investigated the effect of LB100 and the chemotherapy drugs on spheroids formed by SCLC cells. Three cell lines H524, H69 and H446 were tested. The H524 and H69 cells formed large soft clumps in low-attachment 96 well plates. […] H446 spheroids treated with or without 20 μM LB100 were imaged in brightfield (BF) and using green fluorescence over 72 hours. The size of the spheroids was measured using an automated software algorithm that masked the largest BF in the field of view (label-free, real-time live cell assay for spheroids: IncuCyte bright-field analysis). […]
H446 cells were plated at a density of 10,000 cells per well and spheroid allowed to form (72-hours). […] Spheroids were imaged every 4 hours for 6 days and analyzed using the IncuCyte ZOOM software.

[3] = system: H446 cells; settings: human, 72 h
Source text: To determine specific cytotoxicity, we used Cell Counting Kit-8 (Dojindo Molecular Technologies, Rockville, Md.) as previously described (50).

`C[NH+]1CCN(C(=O)C2C(C(=O)O)[C@H]3CC[C@@H]2O3)CC1` (stereo in doubt) [LB-100, 3-[(4-Methylpiperazin-1-yl)carbonyl]-7-oxabicyclo[2.2.1]heptane-2-carboxylic acid] was tested, and the “basal OCR lower compared to untreated cells” value [1] was 4 fold, the “spheroid size (bright-field analysis)” value [2] was “spheroid shrinkage” and the IC50 [3] was 6.9 µM.
